Measurements published in ChEMBL document CHEMBL1201862, “PubChem BioAssay data set” (2004).
One block for each molecule: values may come before it. Activity calls are given as the source filed them.

Tests used:
[1] = molecular target: Calcium/calmodulin-dependent protein kinase type II subunit gamma (Homo sapiens, UniProt Q13555); type: functional
[2] = molecular target: Serine/threonine-protein kinase pim-1 (Homo sapiens, UniProt P11309); type: functional
[3] = molecular target: Calcium/calmodulin-dependent protein kinase type II subunit delta (Homo sapiens, UniProt Q13557); type: functional
[4] = molecular target: Serine/threonine-protein kinase pim-3 (Homo sapiens, UniProt Q86V86); type: functional;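 also: value obtained as one member of a broad kinase panel profiling effort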
[5] = molecular target: Calcium/calmodulin-dependent protein kinase type II subunit beta (Homo sapiens, UniProt Q13554); type: functional
[6] = molecular target: Interleukin-1 receptor-associated kinase 1 (Homo sapiens, UniProt P51617); type: functional;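 also: IRAK1 tested as one member of a kinome panel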
[7] = molecular target: DNA dC->dU-editing enzyme APOBEC-3A (Homo sapiens, UniProt P31941); assay: SAR analysis of small molecule inhibitors of APOBEC3A DNA Deaminase via a fluorescence-based single-stranded DNA deaminase assay - Set 2.; type: functional; details: read-out: IC50_Mean
[8] = molecular target: DNA dC->dU-editing enzyme APOBEC-3G (Homo sapiens, UniProt Q9HC16); assay: SAR analysis of small molecule inhibitors of APOBEC3G DNA Deaminase via a fluorescence-based single-stranded DNA deaminase assay - Set 2.; type: functional; details: read-out: IC50_Mean
[9] = molecular target: Neuropeptides B/W receptor type 1 (Homo sapiens, UniProt P48145); assay: GPR7 antagonist potency, late-stage follow-up, cell-based, fluorescence, dose response, set 5 (AID 588566); type: functional
[10] = molecular target: Melanin-concentrating hormone receptor 1 (Homo sapiens, UniProt Q99705); assay: Late-stage fluorescence-based counterscreen for antagonists of the G-protein coupled receptor 7 (GPR7): cell-based dose response assay to identify antagonists of the melanin-concentrating hormone receptor 1 (MCHR1) Set 5.; type: functional
[11] = HEp-2 cell cytotoxicity, dose response, cytotoxicity control for RSV inhibitor project, HTS (AID 2410); type: functional; details: human respiratory syncytial virus
[12] = molecular target: Tyrosine-protein kinase SYK (Homo sapiens, UniProt P43405); type: functional
[13] = molecular target: Testis-specific serine/threonine-protein kinase 2 (Homo sapiens, UniProt Q96PF2); type: functional;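 also: part of the Navigating the Kinome panel, target entry STK22B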
[14] = molecular target: Aurora kinase A (Homo sapiens, UniProt O14965); type: functional;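 also: value from the Navigating the Kinome kinase panel profiling, panel entry STK6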
[15] = molecular target: T1, Tyrosine-protein kinase JAK3 (Homo sapiens, UniProt P52333); type: functional
T1 sequence (P52333 whole entry): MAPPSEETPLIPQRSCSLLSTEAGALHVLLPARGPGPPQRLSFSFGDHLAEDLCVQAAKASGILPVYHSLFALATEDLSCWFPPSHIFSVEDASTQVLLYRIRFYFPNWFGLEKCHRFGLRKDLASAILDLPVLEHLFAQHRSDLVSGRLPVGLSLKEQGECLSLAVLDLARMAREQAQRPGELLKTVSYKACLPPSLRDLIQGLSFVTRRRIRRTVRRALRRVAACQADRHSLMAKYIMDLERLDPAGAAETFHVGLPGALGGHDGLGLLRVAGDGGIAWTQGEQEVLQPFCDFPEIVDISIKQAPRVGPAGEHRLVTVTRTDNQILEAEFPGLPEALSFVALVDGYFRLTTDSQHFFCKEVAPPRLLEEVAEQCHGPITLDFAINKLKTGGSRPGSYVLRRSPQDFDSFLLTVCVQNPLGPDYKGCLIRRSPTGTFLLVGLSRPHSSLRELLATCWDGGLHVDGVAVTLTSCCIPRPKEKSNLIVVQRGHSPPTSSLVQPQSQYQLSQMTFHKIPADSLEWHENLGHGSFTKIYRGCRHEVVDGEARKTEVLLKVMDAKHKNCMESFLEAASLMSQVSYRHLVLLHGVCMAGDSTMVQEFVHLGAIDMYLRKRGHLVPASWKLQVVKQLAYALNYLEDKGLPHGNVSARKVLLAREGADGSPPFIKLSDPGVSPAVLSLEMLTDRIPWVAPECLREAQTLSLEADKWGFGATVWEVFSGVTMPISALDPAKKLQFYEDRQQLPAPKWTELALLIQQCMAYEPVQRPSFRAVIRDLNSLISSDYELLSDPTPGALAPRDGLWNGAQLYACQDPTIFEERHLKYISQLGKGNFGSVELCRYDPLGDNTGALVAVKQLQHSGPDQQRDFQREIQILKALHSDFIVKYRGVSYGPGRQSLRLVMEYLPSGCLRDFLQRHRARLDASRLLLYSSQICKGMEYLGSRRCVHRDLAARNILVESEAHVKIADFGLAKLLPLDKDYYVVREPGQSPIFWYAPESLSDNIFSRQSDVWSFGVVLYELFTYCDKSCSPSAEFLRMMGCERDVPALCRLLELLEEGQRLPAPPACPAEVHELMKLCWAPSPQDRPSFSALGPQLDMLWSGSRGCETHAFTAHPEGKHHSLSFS

[16] = molecular target: Tyrosine-protein kinase ITK/TSK (Homo sapiens, UniProt Q08881); type: functional;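 also: affinity for ITK measured as one member of a broad kinase panel profiling binding across the kinome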
[17] = molecular target: Testis-specific serine/threonine-protein kinase 1 (Homo sapiens, UniProt Q9BXA7); type: functional
[18] = molecular target: Mitogen-activated protein kinase 13 (Homo sapiens, UniProt O15264); type: functional
[19] = molecular target: cAMP-dependent protein kinase catalytic subunit PRKX (Homo sapiens, UniProt P51817); type: functional
[20] = molecular target: Focal adhesion kinase 1 (Homo sapiens, UniProt Q05397); type: functional;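 also: measured as one member of a kinome panel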
[21] = molecular target: Maternal embryonic leucine zipper kinase (Homo sapiens, UniProt Q14680); type: functional
[22] = molecular target: Tyrosine-protein kinase Fer (Homo sapiens, UniProt P16591); type: functional;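 also: FER tested as one member of a kinome panel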
[23] = molecular target: Serine/threonine-protein kinase pim-2 (Homo sapiens, UniProt Q9P1W9); type: functional;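 also: value comes from a broad kinase panel profiling study in which PIM2 was one of the panel members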
[24] = molecular target: STE20-like serine/threonine-protein kinase (Homo sapiens, UniProt Q9H2G2); type: functional
[25] = molecular target: cAMP-dependent protein kinase catalytic subunit alpha (Homo sapiens, UniProt P17612); type: functional
[26] = Shn3 3'UTR reporter inhibitors, dose response, cell-based, Clone20 osteoblasts, firefly luciferase, cherry-picked (AID 624132); type: functional;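 also: firefly luciferase luminescence from reporter carrying the Shn3 3'UTR in osteoblasts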
[27] = HepG2 cell cytotoxicity, dose response, cytotoxicity control for Shn3 inhibitor project, CellTiter-Glo, cherry-picked (AID 624134); type: functional, cell-based
[28] = control 3'UTR Renilla luciferase suppression, dose response, counter-screen for Shn3 inhibitor project, cell-based, Clone20-Shn3RL, cherry-picked (AID 624133); type: functional

Serine/threonine-protein kinase pim-1, sequence (P11309 whole entry): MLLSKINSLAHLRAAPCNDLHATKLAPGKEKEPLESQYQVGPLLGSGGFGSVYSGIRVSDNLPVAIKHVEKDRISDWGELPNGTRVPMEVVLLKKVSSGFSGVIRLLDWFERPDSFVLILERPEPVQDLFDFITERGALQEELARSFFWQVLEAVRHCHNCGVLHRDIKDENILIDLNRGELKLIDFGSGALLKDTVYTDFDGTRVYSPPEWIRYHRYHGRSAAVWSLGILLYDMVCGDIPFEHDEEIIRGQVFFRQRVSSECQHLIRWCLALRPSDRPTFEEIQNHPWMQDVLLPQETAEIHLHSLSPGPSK
Calcium/calmodulin-dependent protein kinase type II subunit beta, sequence (Q13554 whole entry): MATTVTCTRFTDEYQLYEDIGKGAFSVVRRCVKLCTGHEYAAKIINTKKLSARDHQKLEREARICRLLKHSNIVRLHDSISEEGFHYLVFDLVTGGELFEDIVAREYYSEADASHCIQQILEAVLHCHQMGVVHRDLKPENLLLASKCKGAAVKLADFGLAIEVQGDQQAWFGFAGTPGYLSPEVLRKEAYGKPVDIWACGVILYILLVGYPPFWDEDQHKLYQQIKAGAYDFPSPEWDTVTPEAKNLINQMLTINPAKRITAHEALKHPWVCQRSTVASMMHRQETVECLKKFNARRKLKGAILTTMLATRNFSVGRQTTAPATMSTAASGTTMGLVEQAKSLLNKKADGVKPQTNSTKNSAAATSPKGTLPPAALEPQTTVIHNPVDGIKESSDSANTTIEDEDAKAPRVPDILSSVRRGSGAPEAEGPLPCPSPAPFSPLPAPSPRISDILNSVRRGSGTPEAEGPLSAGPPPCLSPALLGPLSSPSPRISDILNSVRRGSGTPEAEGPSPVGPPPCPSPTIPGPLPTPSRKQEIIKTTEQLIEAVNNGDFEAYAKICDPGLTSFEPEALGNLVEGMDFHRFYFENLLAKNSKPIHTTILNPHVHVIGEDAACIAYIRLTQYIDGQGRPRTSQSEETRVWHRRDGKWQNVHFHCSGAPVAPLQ
Tyrosine-protein kinase Fer, sequence (P16591 whole entry): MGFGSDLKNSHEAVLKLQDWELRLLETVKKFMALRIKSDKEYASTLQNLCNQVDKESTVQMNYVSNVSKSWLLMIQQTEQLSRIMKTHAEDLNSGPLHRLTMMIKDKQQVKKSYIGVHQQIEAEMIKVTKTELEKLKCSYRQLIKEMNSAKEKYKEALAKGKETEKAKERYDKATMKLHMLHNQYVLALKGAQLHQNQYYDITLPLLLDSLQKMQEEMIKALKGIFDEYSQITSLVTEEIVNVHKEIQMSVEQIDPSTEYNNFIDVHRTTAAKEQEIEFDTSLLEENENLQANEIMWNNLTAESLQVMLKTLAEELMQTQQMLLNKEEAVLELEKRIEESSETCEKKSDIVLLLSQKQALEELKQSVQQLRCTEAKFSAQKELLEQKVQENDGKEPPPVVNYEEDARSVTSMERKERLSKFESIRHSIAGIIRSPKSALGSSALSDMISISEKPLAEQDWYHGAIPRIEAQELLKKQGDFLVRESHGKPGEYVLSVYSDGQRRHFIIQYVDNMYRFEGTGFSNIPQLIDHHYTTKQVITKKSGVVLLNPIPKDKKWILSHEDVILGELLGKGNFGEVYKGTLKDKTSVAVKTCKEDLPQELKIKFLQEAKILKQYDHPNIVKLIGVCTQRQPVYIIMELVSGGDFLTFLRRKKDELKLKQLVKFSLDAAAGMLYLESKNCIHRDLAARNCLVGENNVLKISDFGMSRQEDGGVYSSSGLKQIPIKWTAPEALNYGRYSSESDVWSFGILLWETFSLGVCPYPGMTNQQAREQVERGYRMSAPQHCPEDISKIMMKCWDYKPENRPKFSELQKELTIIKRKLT
Interleukin-1 receptor-associated kinase 1, sequence (P51617 whole entry): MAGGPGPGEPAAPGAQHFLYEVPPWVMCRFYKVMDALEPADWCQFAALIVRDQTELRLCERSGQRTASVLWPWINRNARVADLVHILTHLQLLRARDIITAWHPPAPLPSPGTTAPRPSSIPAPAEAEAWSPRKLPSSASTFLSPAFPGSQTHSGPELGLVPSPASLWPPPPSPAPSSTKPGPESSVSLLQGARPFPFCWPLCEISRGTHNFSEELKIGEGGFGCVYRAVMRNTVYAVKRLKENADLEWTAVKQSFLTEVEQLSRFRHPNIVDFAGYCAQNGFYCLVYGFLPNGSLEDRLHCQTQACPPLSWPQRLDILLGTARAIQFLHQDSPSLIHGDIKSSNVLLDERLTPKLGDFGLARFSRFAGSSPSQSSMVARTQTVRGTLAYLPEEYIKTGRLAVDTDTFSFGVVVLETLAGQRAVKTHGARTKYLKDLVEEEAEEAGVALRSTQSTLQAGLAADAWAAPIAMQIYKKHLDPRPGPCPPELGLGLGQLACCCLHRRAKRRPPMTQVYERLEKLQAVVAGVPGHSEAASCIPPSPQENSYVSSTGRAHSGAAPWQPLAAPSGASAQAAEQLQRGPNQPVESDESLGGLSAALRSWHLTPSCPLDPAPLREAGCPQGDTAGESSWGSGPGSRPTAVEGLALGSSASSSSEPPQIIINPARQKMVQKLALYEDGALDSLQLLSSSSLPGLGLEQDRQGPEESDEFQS
Neuropeptides B/W receptor type 1, sequence (P48145 whole entry): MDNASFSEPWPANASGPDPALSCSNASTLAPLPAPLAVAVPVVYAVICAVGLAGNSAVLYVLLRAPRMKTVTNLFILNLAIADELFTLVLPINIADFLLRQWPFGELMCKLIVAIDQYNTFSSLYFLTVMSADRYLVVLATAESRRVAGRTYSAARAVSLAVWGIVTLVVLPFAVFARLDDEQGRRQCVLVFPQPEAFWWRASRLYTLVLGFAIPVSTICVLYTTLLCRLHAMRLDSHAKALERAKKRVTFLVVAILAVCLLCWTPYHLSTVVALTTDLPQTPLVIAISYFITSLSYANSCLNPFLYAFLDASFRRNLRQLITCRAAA
Testis-specific serine/threonine-protein kinase 1, sequence (Q9BXA7 whole entry): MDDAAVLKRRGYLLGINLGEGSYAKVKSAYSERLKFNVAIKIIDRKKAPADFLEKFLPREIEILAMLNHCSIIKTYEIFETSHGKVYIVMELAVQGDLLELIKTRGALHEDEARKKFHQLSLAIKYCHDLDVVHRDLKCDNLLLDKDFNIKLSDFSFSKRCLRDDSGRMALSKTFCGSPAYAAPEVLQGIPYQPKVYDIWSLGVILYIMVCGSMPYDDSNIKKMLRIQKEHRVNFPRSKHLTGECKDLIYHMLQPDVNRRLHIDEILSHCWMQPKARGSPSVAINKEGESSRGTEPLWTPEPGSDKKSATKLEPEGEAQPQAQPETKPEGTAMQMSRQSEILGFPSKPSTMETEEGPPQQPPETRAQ
Calcium/calmodulin-dependent protein kinase type II subunit gamma, sequence (Q13555 whole entry): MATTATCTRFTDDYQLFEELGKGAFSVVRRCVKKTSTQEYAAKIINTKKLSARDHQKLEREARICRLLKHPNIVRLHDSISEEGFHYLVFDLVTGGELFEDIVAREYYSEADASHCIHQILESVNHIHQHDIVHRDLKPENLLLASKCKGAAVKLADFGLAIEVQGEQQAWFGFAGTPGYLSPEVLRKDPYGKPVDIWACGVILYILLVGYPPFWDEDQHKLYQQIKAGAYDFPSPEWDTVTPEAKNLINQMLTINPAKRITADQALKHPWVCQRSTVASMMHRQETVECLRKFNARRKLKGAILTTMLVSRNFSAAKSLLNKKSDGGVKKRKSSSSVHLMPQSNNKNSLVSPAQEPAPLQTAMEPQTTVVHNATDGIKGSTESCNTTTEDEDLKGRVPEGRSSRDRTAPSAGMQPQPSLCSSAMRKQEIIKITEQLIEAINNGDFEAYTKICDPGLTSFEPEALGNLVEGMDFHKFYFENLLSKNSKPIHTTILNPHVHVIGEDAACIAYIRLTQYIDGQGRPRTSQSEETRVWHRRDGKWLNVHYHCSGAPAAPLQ
Melanin-concentrating hormone receptor 1, sequence (Q99705 whole entry): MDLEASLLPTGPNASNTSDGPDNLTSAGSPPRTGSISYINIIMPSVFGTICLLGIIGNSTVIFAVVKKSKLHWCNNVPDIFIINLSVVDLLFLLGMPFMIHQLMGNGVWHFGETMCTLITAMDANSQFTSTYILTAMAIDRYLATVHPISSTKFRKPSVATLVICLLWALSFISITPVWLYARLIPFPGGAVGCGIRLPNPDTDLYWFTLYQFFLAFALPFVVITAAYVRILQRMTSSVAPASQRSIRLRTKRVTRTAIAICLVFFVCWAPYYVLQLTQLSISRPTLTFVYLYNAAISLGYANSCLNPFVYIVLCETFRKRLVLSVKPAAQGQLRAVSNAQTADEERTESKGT
Mitogen-activated protein kinase 13, sequence (O15264 whole entry): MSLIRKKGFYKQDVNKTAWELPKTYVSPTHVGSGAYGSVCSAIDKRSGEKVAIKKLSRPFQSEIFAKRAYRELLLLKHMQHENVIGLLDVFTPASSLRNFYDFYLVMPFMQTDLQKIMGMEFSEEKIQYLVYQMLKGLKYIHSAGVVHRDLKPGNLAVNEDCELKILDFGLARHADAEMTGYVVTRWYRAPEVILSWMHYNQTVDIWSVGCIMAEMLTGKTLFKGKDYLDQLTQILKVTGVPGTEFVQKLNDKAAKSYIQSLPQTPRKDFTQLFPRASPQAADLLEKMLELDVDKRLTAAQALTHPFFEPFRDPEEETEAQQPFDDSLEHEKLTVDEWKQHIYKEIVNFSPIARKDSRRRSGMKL

Ki [1]: 3980 nM (active)
Ki [2]: 1260 nM (active)
Ki [3]: 5010 nM (active)
Ki [4]: 3160 nM (active)
Ki [5]: 5010 nM (active)
Ki [6]: 7940 nM (active)
Structure (SMILES): CCOC(=O)c1cn(-c2ccc(O)cc2C)c2cc(-c3ccccc3)ccc2c1=O

Structure (SMILES): CSc1nnc2n(CCC(C)C)c(=O)c3ccccc3n12
IC50 [7]: > 99000 nM (inactive)
IC50 [8]: > 99000 nM (inactive)

IC50 [9]: 3190 nM (active)
IC50 [10]: > 20000 nM (inactive)
Structure (SMILES): Cn1ccc2ccc(Oc3c(Cl)cnn(Cc4cccc5ccccc45)c3=O)cc21

Structure (SMILES): Cc1ccc(-c2nn(C(C)(C)C)c3ncnc(N)c23)cc1
CC50 [11]: 9910 nM (active)
Ki [12]: > 1580 nM (inactive)
Ki [13]: > 1580 nM (inactive)
Ki [14]: > 1580 nM (inactive)
Ki [15]: > 1580 nM (inactive)
Ki [16]: > 1580 nM (inactive)
Ki [17]: > 1580 nM (inactive)
Ki [18]: > 7940 nM (inactive)
Ki [19]: > 1580 nM (inactive)
Ki [20]: > 1580 nM (inactive)
Ki [21]: > 1580 nM (inactive)
Ki [22]: > 1580 nM (inactive)
Ki [23]: > 1580 nM (inactive)
Ki [24]: 1580 nM (active)
Ki [25]: 1580 nM (active)
AC50 [26]: 5890 nM (active)
AC50 [27]: > 70000 nM (inactive)
AC50 [28]: 1970 nM (active)
